Laboratory results reported in patent publication EP4733297A1, “INTEGRIN-INHIBITING SMALL MOLECULE COMPOUND” (Antibody Therapeutics, Inc., priority 2023, dated 2024).

How the values were obtained:
interstitial pneumonia = conditions: reported July 2022; cited from earlier work
[1] = test system: TGFβ activation by integrin expressed in lung fibroblasts; test: Effect on TGFβ activation: luciferase reporter coculture of lung fibroblasts and CCL64 reporter cells; type: cell-based, male Wistar rats
Description: In this Example, lung fibroblasts were used as integrin-expressing cells, and the effect of IBF-17, which is a compound of the present invention, on TGFβ activity was examined. Fibroblasts isolated from lungs of male Wistar rats and cultured for 7 days were seeded at 2×10^3 cells per well and incubated for 5 days. After 5 days, IBF-17 or C8 (a known αvβ1 inhibitor) was added so as to give final concentrations of 2, 20, or 200 nM, and 2 hours thereafter, TGFβ-responsive luciferase-producing reporter cells CCL64 were seeded at 2×10^4 cells and cocultured for 18 hours. After that, the cells were lysed, luciferase assay reagent (Promega Corporation) was added, and luciferase activity was measured using a luminometer. The structure of C8, which is a known αvβ1 inhibitor, is as follows. [drawing 43]

[2] = test system: rat lung-derived fibroblasts; test: Differentiation of fibroblasts into myofibroblasts, α-SMA western blotting; type: cell-based; conditions: TGFβ stimulation 96 hours
Description: In this Example, the effect of IBF-17, which is a compound of the present invention, on differentiation of fibroblasts into myofibroblasts was examined. The medium was replaced with a serum-free medium, and rat lung-derived fibroblasts isolated in Example 2 were cultured for 24 hours. After culturing, IBF-17 was added so as to give final concentrations of 2, 20 nM, or 200 nM, and C8 was added so as to give final concentrations of 2, 20, or 200 nM, followed by reaction for 2 hours. After the reaction, recombinant human TGFβ1 was added so as to give a final concentration of 5 ng/mL, and stimulation was carried out for 96 hours to induce differentiation into myofibroblasts. After induction of differentiation, protein was extracted from the cells and western blotting was performed, a band of α-SMA, which is a differentiation marker, was detected, and the band was quantified as a relative band intensity with respect to glyceraldehyde-3-phosphate dehydrogenase (GAPDH), which is a control.
From this Example, differentiation of fibroblasts into myofibroblasts (by […] TGFβ) was evaluated using α-smooth muscle actin as marker.

[3] = test system: carbon tetrachloride (CCl4) administration model; test: 8-week administration experiment in carbon tetrachloride (CCl4) administration model; type: in vivo, mice; conditions: oral, 8 weeks
Description: In this Example, over a period of 8 weeks, carbon tetrachloride (CCl4) for inducing fibrosis in the liver and compounds of the present invention (IBF-17, IBF-18, and IBF-20) were administered to mice, and the state of tissue fibrosis was observed.
To mice, carbon tetrachloride (diluted 4-fold with olive oil) was intraperitoneally administered at 1 mL/kg twice per week (for example, Monday and Friday, or Tuesday and Friday) for a total of 8 weeks. Throughout the entire test period, IBF-17, IBF-18, or IBF-20 was orally administered daily at 1 or 10 mg/kg twice per day (with an interval of 8 hours). After completion of the experiment, the liver was collected, and the amount of collagen was quantified by hydroxyproline measurement, and a specimen was stained with Sirius red to quantify the fibrotic area. In addition, expression of fibrosis markers, Col1a1 and Acta2 (α-SMA) genes, was analyzed by qPCR.

[4] = test system: carbon tetrachloride (CCl4) administration model; test: 3-day administration experiment in carbon tetrachloride (CCl4) administration model; type: in vivo, mice; conditions: liver, 72 hours after CCl4; subcutaneous 1 mg/kg twice per day
Description: In this Example, carbon tetrachloride (CCl4) for inducing fibrosis in the liver was administered once to mice, and thereafter, the compound of the present invention (IBF-17) was administered for 3 days, and then the liver was collected and observed. More specifically, carbon tetrachloride (diluted 4-fold with olive oil) was intraperitoneally administered once at 2 mL/kg to mice that had been fasted for half a day from the day before the test. IBF-17 was subcutaneously administered daily at 1 mg/kg twice per day (with an interval of 8 hours), including the day of carbon tetrachloride administration. At 72 hours after carbon tetrachloride administration, the mice were dissected and the liver was collected, and expression of fibrosis marker genes (Acta2, Col1a1, Col3a1, Tgfb1, Loxl1, and Ddr2) was analyzed by qPCR.

NASH model = test: 8-week administration experiment in NASH model (CDAHFD diet); type: in vivo, mice; conditions: oral, 8 weeks
Description: In this Example, over a period of 8 weeks, while providing mice with CDAHFD (choline-deficient amino acid-restricted high-fat diet), compounds of the present invention (IBF-17, IBF-18, and IBF-20) were administered, and the state of tissue fibrosis was observed. More specifically, mice were fed with a special diet CDAHFD (Research Diets) for inducing a human NASH-like pathological condition for a total of 8 weeks, replacing with new diet twice per week (for example, Monday and Friday, or Tuesday and Friday). Throughout the entire test period, IBF-17, IBF-18, or IBF-20 was orally administered daily at 1, 3, or 10 mg/kg twice per day (with an interval of 8 hours). After completion of the experiment, the amount of collagen in the liver was quantified by hydroxyproline measurement, and, for IBF-17, in addition to staining specimens with Sirius red, which specifically stains collagen, to quantify the fibrotic area, expression of genes regarded as fibrosis markers (Acta2, Col1a1, and Timp-1) was analyzed by qPCR. In addition, body weight of each mouse during the feeding period (CDAHFD temporarily decreases at the initial stage of feeding) was measured, and the weight of the collected liver was measured.

[5] = test system: unilateral ureteral obstruction (UUO) model; test: 10-day administration experiment in unilateral ureteral obstruction (UUO) model; type: in vivo, mice; conditions: kidney, 10 days after ligation; subcutaneous 1 or 5 mg/kg twice per day for 9 days
Description: In this Example, over a period of 10 days, the compound of the present invention (IBF-17) was administered to mice in which the ureter on one side was ligated, and the state of tissue fibrosis was observed. More specifically, mice under deep anesthesia were laparotomized, and two sites of the left ureter were ligated using a nylon thread, and the abdomen was sutured. From 1 day after ligation, IBF-17 was subcutaneously administered daily at 1 or 5 mg/kg twice per day (with an interval of 8 hours) for 9 days. At 10 days after ligation, the kidney was collected and expression of genes regarded as fibrosis markers (Acta2, Col1a1, Col3a1, Ddr2, Tgfb1, Tnc, Trpc6, and Loxl1) was analyzed by qPCR.

[6] = test system: carbon tetrachloride (CCl4) administration model; test: 15-day administration experiment in carbon tetrachloride (CCl4) administration model (therapeutic); type: in vivo, mice; conditions: oral 5 mg/kg twice per day, 5 days per week, from week 4 of 6 weeks of CCl4
Description: In this Example, over a period of 6 weeks, carbon tetrachloride (CCl4) for inducing fibrosis in the liver was administered to mice, and the compound of the present invention (IBF-17) was administered for a total of 15 days over 3 weeks in the latter half of the test, and the state of tissue fibrosis was observed. While Example 4 is examination of a prophylactic effect in which the compound is administered from the start of the test, this Example is examination of a therapeutic effect in which the compound is administered after 3 weeks have passed since administration of carbon tetrachloride (in a state where liver fibrosis has occurred). Specifically, to mice, carbon tetrachloride (diluted 4-fold with olive oil) was intraperitoneally administered at 1 mL/kg twice per week (for example, Monday and Friday, or Tuesday and Friday) for a total of 6 weeks. From week 4 of the start of the test, IBF-17 was orally administered at 5 mg/kg twice per day (with an interval of 8 hours) for 5 days per week (Monday to Friday). After completion of the experiment, the liver was collected and the amount of collagen was quantified by hydroxyproline measurement.

[7] = test system: bleomycin administration model; test: 10-day administration experiment in bleomycin administration model; type: in vivo, mice; conditions: oral 5 mg/kg twice per day, 5 days per week, from 1 week after bleomycin
Description: In this Example, to mice administered with bleomycin for inducing fibrosis in the lung, the compound of the present invention (IBF-17) was administered for a total of 10 days over a period of 2 weeks from 1 week after bleomycin administration, and the state of tissue fibrosis was observed.
Specifically, under deep anesthesia, the neck of mice was incised, bleomycin (diluted with physiological saline) was intratracheally administered once at 1.5 U/kg, and the neck was sutured. From 1 week after bleomycin administration (the time when fibrosis begins to occur), IBF-17 was orally administered at 5 mg/kg twice per day (with an interval of 8 hours) for 5 days per week (Monday to Friday). After completion of the experiment, the lung was collected and expression of fibrosis-related genes (Acta2, Col1a1, Col3a1, and Tnc) was analyzed by qPCR. Further, lung sections were prepared, collagen was stained by Masson-trichrome staining, and the fibrotic area was quantified.

[8] = liver, 1 or 10 mg/kg twice per day

SMILES: COCCN(CCCCc1ccc2c(n1)NCCC2)CC[C@H](Nc1ncnc2ccccc12)C(=O)O [PLN-74809]
- efficacy in early Phase 2a of a clinical trial (interstitial pneumonia): proven efficacy

SMILES: O=C(O)C[C@H](NC(=O)CNC(=O)c1cc(O)cc(NC2=NCC(F)CN2)c1)c1cccc(S(F)(F)(F)(F)F)c1 (stereo partly drawn) [IBF-17, (3S)-3-(2-{3-[(5-fluoro-1,4,5,6-tetrahydropyrimidin-2-yl)amino]-5-hydroxybenzamido}acetamido)-3-[3-(pentafluorosulfanyl)phenyl]propanoic acid]
- activation of TGFβ (luciferase activity) ([1]; 200 nM): almost completely inhibited
- activation of TGFβ (luciferase activity) ([1]; concentration range of 2 to 200 nM, coculture 18 hours): suppressed activation of TGFβ in a concentration-dependent manner
- inhibition of differentiation of fibroblasts into myofibroblasts (α-SMA band intensity) ([2]; 2 nM): inhibition of differentiation was observed
- inhibition at 0.02 µM ([2]; Rattus norvegicus, Fibroblast, 20 nM, read-out: inhibition of differentiation of fibroblasts into myofibroblasts (α-SMA band intensity)): ≥ 80%
- mRNA expression of Acta2 (qPCR) [3, 8]: tends to be decreased
- mRNA expression of Col1a1 (qPCR) [3, 8]: tends to be decreased
- amount of hydroxyproline in liver tissue ([3]; 1 mg/kg twice per day): showed an effect
- amount of hydroxyproline in liver tissue ([3]; 1 or 10 mg/kg twice per day): decreased the amount of hydroxyproline
- Sirius red-stained area of liver tissue ([3]; both 1 mg/kg and 10 mg/kg twice per day, versus non-administration group, decrease followed the dose): decreased
- mRNA expression of Col1a1 (qPCR) [4]: clearly decreased
- mRNA expression of Col3a1 (qPCR) [4]: clearly decreased
- mRNA expression of six fibrosis markers (Acta2, Col1a1, Col3a1, Tgfb1, Loxl1, Ddr2) (qPCR) [4]: all of these markers were decreased
- hydroxyproline amount of liver tissue (NASH model; any dose (1, 3, and 10 mg/kg) twice per day, versus no administration): decreases in hydroxyproline amount were observed
- mRNA expression of fibrosis markers (Acta2, Col1a1, Timp-1) (qPCR) (NASH model; any of 1, 3, and 10 mg/kg twice per day): uniformly decreased fibrosis markers
- fibrotic area in tissue specimens (Sirius red) (NASH model; any of 1, 3, and 10 mg/kg twice per day, versus non-administration group): reduced the fibrotic area
- mRNA expression of Acta2 (qPCR) [5]: decreasing tendency
- mRNA expression of Col1a1 (qPCR) [5]: significant decreases
- mRNA expression of Col3a1 (qPCR) [5]: significant decreases
- mRNA expression of Ddr2 (qPCR) [5]: significant decreases
- mRNA expression of Loxl1 (qPCR) [5]: significant decreases
- mRNA expression of Tgfb1 (qPCR) [5]: decreasing tendency
- mRNA expression of Tnc (qPCR) [5]: decreasing tendency
- mRNA expression of Trpc6 (qPCR) [5]: decreasing tendency
- amount of hydroxyproline in mouse liver [6]: significantly decreased
- mRNA expression of Col1a1 (qPCR) ([7]; lung): significantly decreased
- mRNA expression of Col3a1 (qPCR) ([7]; lung): significantly decreased
- fibrotic area of lung (Masson-trichrome staining) [7]: significantly decreased
